Patent publication US20150250173A1, “PESTICIDALLY ACTIVE MIXTURES COMPRISING ANTHRANILAMIDE COMPOUNDS” (BASF SE, priority 2012, published 2015)
Where two headings read alike, the source gives them in different places.

Key:
Type in all cases: cell-based
Conditions in all cases: single compound, 7 days
[1] = test system: Pyricularia oryzae
[2] = test system: Septoria tritici; assay: Activity against leaf blotch on wheat caused by Septoria tritici (Septtr), microtiter plate
[3] = test system: Botrytis cinerea; assay: Activity against the grey mold Botrytis cinerea in the microtiterplate test (Botrci)
[4] = test system: Phytophthora infestans

O=C(Nc1ccccc1-c1ccc(Cl)cc1)c1cccnc1Cl [Boscalid]
Observed efficacy ([1]; 16 ppm): 10

CON=C(C(=O)OC)c1ccccc1CON=C(C)c1cccc(C(F)(F)F)c1 [Trifloxystrobin]
Observed efficacy ([1]; 0.016 ppm): 29 | Observed efficacy ([1]; 0.063 ppm): 29 | Observed efficacy ([2]; 0.016 ppm): 62

CO/C=C(/C(=O)OC)c1ccccc1Oc1cc(Oc2ccccc2C#N)ncn1 [Azoxystrobin]
Observed efficacy ([1]; 0.016 ppm): 38

Fc1ccc([C@]2(Cn3cncn3)O[C@H]2c2ccccc2Cl)cc1 [Epoxiconazol]
Observed efficacy ([3]; 0.25 ppm): 59

CCS(CC)=NC(=O)c1cc(Cl)cc(Cl)c1NC(=O)c1cc(C(F)(F)F)nn1-c1ncccc1Cl [Compound I-16, 2-(3-chloro-2-pyridyl)-N-[2,4-dichloro-6-[(diethyl-λ^4-sulfanylidene)carbamoyl]phenyl]-5-(trifluoromethyl)pyrazole-3-carboxamide]
Observed efficacy ([1]; 1 ppm): 3 | Observed efficacy ([1]; 4 ppm): 4 | Observed efficacy ([4]; 16 ppm): 23 | Observed efficacy ([2]; 4 ppm): 16 | Observed efficacy ([2]; 63 ppm): 17

CO/N=C(/C1=NOCCO1)c1ccccc1Oc1ncnc(Oc2ccccc2Cl)c1F [Fluoxastrobin]
Observed efficacy ([2]; 0.25 ppm): 70

CCCN(CCOc1c(Cl)cc(Cl)cc1Cl)C(=O)n1ccnc1 [Prochloraz]
Observed efficacy ([3]; 0.016 ppm): 14

Mancozeb
Observed efficacy ([2]; 4 ppm): 48

CCS(CC)=NC(=O)c1cc(Cl)cc(C)c1NC(=O)c1cc(C(F)(F)F)nn1-c1ncccc1Cl [Compound I-11, 2-(3-chloro-2-pyridyl)-N-[2-methyl-4-chloro-6-[(diethyl-λ^4-sulfanylidene)carbamoyl]phenyl]-5-(trifluoromethyl)pyrazole-3-carboxamide]
Observed efficacy ([1]; 1 ppm): 0 | Observed efficacy ([1]; 4 ppm): 3 | Observed efficacy ([1]; 63 ppm): 10

CO/C=C(/C(=O)OC)c1ccccc1COc1cccc(C(F)(F)F)n1 [Picoxystrobin]
Observed efficacy ([1]; 0.063 ppm): 72 | Observed efficacy ([2]; 0.063 ppm): 53

COC(=O)N(OC)c1ccccc1COc1ccn(-c2ccc(Cl)cc2)n1 [Pyraclostrobin]
Observed efficacy ([1]; 0.004 ppm): 39 | Observed efficacy ([1]; 0.016 ppm): 49 | Observed efficacy ([4]; 0.063 ppm): 10

Cc1cc(Cl)cc(C(=O)N=S(C(C)C)C(C)C)c1NC(=O)c1cc(C(F)(F)F)nn1-c1ncccc1Cl [Compound I-21, 2-(3-chloro-2-pyridyl)-N-[2-methyl-4-chloro-6-[(bis-2-propyl-λ^4-sulfanylidene)carbamoyl]phenyl]-5-(trifluoromethyl)pyrazole-3-carboxamide]
Observed efficacy ([1]; 1 ppm): 0 | Observed efficacy ([1]; 4 ppm): 0 | Observed efficacy ([2]; 4 ppm): 12 | Observed efficacy ([3]; 4 ppm): 0 | Observed efficacy ([3]; 16 ppm): 4

OC(Cc1ccccc1Cl)(Cn1nc[nH]c1=S)C1(Cl)CC1 (stereo not shown) [Prothioconazol]
Observed efficacy ([2]; 0.063 ppm): 62
